According to patent publication US11390606B2, “Pyridazinone compounds and uses thereof” (Edgewise Therapeutics, Inc., priority 2018, dated 2022):

What follows are compounds tested against T1, skeletal myofibrils (Rabbit Psoas), myosin ATPase activity (assay: Skeletal Myofibril ATPase Assay). Settings: skeletal myofibrils (Rabbit Psoas 0.25 mg/mL), PK/LDH-coupled NADH absorbance at 340 nm.
T1 construct: Rabbit Psoas Prep 11 (0.25 mg/mL)
Format: biochemical
Protocol: Overview: Myosin ATPase activity is assessed by using a coupled reaction system, in which ADP generated by the myosin ATPase function is coupled to the disappearance of NADH through the pyruvate kinase/lactate dehydrogenase (PK-LDH) system. Myosin ATPase activity produces ADP, which is used as a substrate for PK to produce pyruvate and regenerate ATP. The pyruvate is then used as a substrate by LDH to oxidize NADH to NAD+. The rate of the reaction is monitored through the time-dependent disappearance of NADH using absorbance at 340 nm. Inhibition of ATPase activity by the assayed compounds is indicated by a reduced rate of NADH loss, relative to vehicle-treated controls, over the experimental time window. To assess the selectivity of the assayed compounds for skeletal myofibrils, the compounds are counter-screened in cardiac myofibrils.
Materials: The following stock solutions and reagents were used in the Skeletal Myofibril ATPase Assay:
Stock Solutions of pCa buffer. Combine PIPES, CaCl2, and EGTA solutions with 70 mL of water. Adjust pH to 7.0 and bring final volume to 100 mL.
Buffer A & Buffer B. Buffers were stored on ice until use.
Skeletal Myofibril ATPase Assay Procedure: BSA, ATP, NADH, PEP, and DTT solutions were thawed at room temperature, then transferred to ice. Pellet-frozen myofibrils were transferred with approximately twice the required volume into a sufficiently large tube and capped. Myofibrils were thawed by rolling in a water bath for approximately 15 min at room temperature and cooled on ice. Buffers A and B were prepared by adjusting volumes as necessary for required number of wells and stored on ice. 0.5 μL of the compounds to be assayed were added into wells. 25 μL of Buffer A was dispensed into the wells, followed by 25 μL of Buffer B. The wells were measured for absorbance at 340 nm, using a kinetic protocol in which the wells are read every 1.5-2 min for 45 min. The slope of the data was approximated by subtracting the minimum absorbance value from the maximum value for each well. This was accomplished either in the SoftMax Pro software or in a spreadsheet program such as Excel. Using GraphPad Prism 8.0, the data was normalized by assigning a value of 100% to the 1% DMSO vehicle wells. Typically, a normalized 0% value was simply assigned to a (Max−Min) value of 0. The normalized data was fit to a Four Parameter Logistic sigmoidal equation, constraining the bottom to be 0 or greater. Compounds of Table 1 to 4 were tested and results of the assay appear in Table 5 herein. A=IC50 is less than or equal to 10 μM; B=IC50 is greater than 10 μM and less than 100 μM; C=IC50 is greater than 100 μM.

Q: For `O=c1ccc(-c2cnc(OCCOC(F)F)nc2)nn1Cc1ccc(Cl)cc1` [Compound 1, 2-(4-chlorobenzyl)-6-(2-(2-(difluoromethoxy)ethoxy)pyrimidin-5-yl)pyridazin-3(2H)-one], which IC50 is on record?
A: < 10 µM

Q: Which IC50 does the source give for `O=c1ccc(-c2cnc(OCCOC(F)(F)F)nc2)nn1Cc1ccc(Cl)cc1` [Compound 2, 2-(4-chlorobenzyl)-6-(2-(2-(trifluoromethoxy)ethoxy)pyrimidin-5-yl)pyridazin-3(2H)-one] here?
A: < 10 µM

Q: Which IC50 does the source give for `O=c1ccc(-c2cnc(N3CC(C(F)(F)F)C3)nc2)nn1Cc1ccc(Cl)cc1` [Compound 4, 2-(4-chlorobenzyl)-6-(2-(3-(trifluoromethyl)azetidin-1-yl)pyrimidin-5-yl)pyridazin-3(2H)-one] here?
A: < 10 µM

Q: `O=c1ccc(-c2cnc(OCC(F)(F)F)nc2)nn1Cc1ccc(Cl)cc1` [Compound 5, 2-(4-chlorobenzyl)-6-(2-(2,2,2-trifluoroethoxy)pyrimidin-5-yl)pyridazin-3(2H)-one] was tested. Which IC50 did it give?
A: < 10 µM

Q: How did the IC50 turn out when `O=c1ccc(-c2cnc(NCC(F)(F)F)nc2)nn1Cc1ccc(Cl)cc1` [Compound 6, 2-(4-chlorobenzyl)-6-(2-((2,2,2-trifluoroethyl)amino)pyrimidin-5-yl)pyridazin-3(2H)-one] was run?
A: < 10 µM

Q: How did the IC50 turn out when `O=c1ccc(-c2cnc(OCC(F)(F)F)nc2)nn1Cc1ccc(O)c(Cl)c1` [Compound 7, 2-(3-chloro-4-hydroxybenzyl)-6-(2-(2,2,2-trifluoroethoxy)pyrimidin-5-yl)pyridazin-3(2H)-one] was run?
A: < 10 µM

Q: For `O=c1ccc(-c2cnc(NC3CC3)nc2)nn1Cc1ccc(Cl)cc1` [Compound 8, 2-(4-chlorobenzyl)-6-(2-(cyclopropylamino)pyrimidin-5-yl)pyridazin-3(2H)-one], which IC50 is on record?
A: < 10 µM

Q: `O=c1ccc(-c2cnc(N3CC(OC(F)F)C3)nc2)nn1Cc1ccc(Cl)cc1` [Compound 9, 2-(4-chlorobenzyl)-6-(2-(3-(difluoromethoxy)azetidin-1-yl)pyrimidin-5-yl)pyridazin-3(2H)-one] was tested. Which IC50 did it give?
A: < 10 µM

Q: How did the IC50 turn out when `O=c1ccc(-c2cnc(OC(F)F)nc2)nn1Cc1ccc(Cl)cc1` [Compound 10, 2-(4-chlorobenzyl)-6-(2-(difluoromethoxy)pyrimidin-5-yl)pyridazin-3(2H)-one] was run?
A: < 10 µM

Q: `O=c1ccc(-c2ccc(OCC(F)(F)F)nc2)nn1Cc1ccc(Cl)cc1` [Compound 11, 2-(4-chlorobenzyl)-6-(6-(2,2,2-trifluoroethoxy)pyridin-3-yl)pyridazin-3(2H)-one] was tested. Which IC50 did it give?
A: < 10 µM

Q: `CNc1ncc(-c2ccc(=O)n(Cc3ccc(Cl)cc3)n2)cn1` [Compound 12, 2-(4-chlorobenzyl)-6-(2-(methylamino)pyrimidin-5-yl)pyridazin-3(2H)-one] was tested. Which IC50 did it give?
A: < 10 µM

Q: Which IC50 does the source give for `O=c1ccc(-c2ccc(OC(F)(F)F)nc2)nn1Cc1ccc(Cl)cc1` [Compound 13, 2-(4-chlorobenzyl)-6-(6-(trifluoromethoxy)pyridin-3-yl)pyridazin-3(2H)-one] here?
A: < 10 µM

Q: `O=c1ccc(-c2cnc(N3CC4(C3)CC(F)(F)C4)nc2)nn1Cc1ccc(Cl)cc1` [Compound 14, 2-(4-chlorobenzyl)-6-(2-(6,6-difluoro-2-azaspiro[3.3]heptan-2-yl)pyrimidin-5-yl)pyridazin-3(2H)-one] was tested. Which IC50 did it give?
A: < 10 µM

Q: `O=c1ccc(-c2ccc(OC(F)F)nc2)nn1Cc1ccc(Cl)c(F)c1` [Compound 15, 2-(4-chloro-3-fluorobenzyl)-6-(6-(difluoromethoxy)pyridin-3-yl)pyridazin-3(2H)-one] was tested. Which IC50 did it give?
A: < 10 µM

Q: `CC1CCCN1c1ncc(-c2ccc(=O)n(Cc3ccc(F)cc3F)n2)cn1` (stereo not shown) [Compound 16, 2-(2,4-difluorobenzyl)-6-(2-(2-methylpyrrolidin-1-yl)pyrimidin-5-yl)pyridazin-3(2H)-one] was tested. Which IC50 did it give?
A: < 10 µM

Q: `COc1ccc(-c2ccc(=O)n(Cc3ccc(Cl)cc3)n2)cn1` [Compound 17, 2-(4-chlorobenzyl)-6-(6-methoxypyridin-3-yl)pyridazin-3(2H)-one] was tested. Which IC50 did it give?
A: < 10 µM

Q: For `O=c1ccc(-c2cnc(N3CC(OC(F)(F)F)C3)nc2)nn1Cc1ccc(Cl)cc1` [Compound 18, 2-(4-chlorobenzyl)-6-(2-(3-(trifluoromethoxy)azetidin-1-yl)pyrimidin-5-yl)pyridazin-3(2H)-one], which IC50 is on record?
A: < 10 µM

Q: For `O=c1ccc(-c2ccc(OC(F)F)nc2)nn1Cc1ccc(Cl)cc1` [Compound 19, 2-(4-chlorobenzyl)-6-(6-(difluoromethoxy)pyridin-3-yl)pyridazin-3(2H)-one], which IC50 is on record?
A: < 10 µM

Q: Which IC50 does the source give for `O=c1ccc(-c2ccc(OC(F)F)nc2)nn1Cc1ccc(F)c(Cl)c1` [Compound 20, 2-(3-chloro-4-fluorobenzyl)-6-(6-(difluoromethoxy)pyridin-3-yl)pyridazin-3(2H)-one] here?
A: < 10 µM

Q: With `O=c1ccc(-c2ccc(OCC3(F)COC3)nc2)nn1Cc1ccc(Cl)cc1` [Compound 21, 2-(4-chlorobenzyl)-6-(6-((3-fluorooxetan-3-yl)methoxy)pyridin-3-yl)pyridazin-3(2H)-one] as the compound, how does the IC50 read?
A: < 10 µM

Q: Which IC50 does the source give for `O=c1ccc(-c2cnc(OCC3(F)COC3)nc2)nn1Cc1ccc(Cl)cc1` [Compound 22, 2-(4-chlorobenzyl)-6-(2-((3-fluorooxetan-3-yl)methoxy)pyrimidin-5-yl)pyridazin-3(2H)-one] here?
A: < 10 µM

Q: For `O=c1ccc(-c2cnc(N3CCCC3)nc2)nn1Cc1ccc(F)cc1F` [Compound 23, 2-(2,4-difluorobenzyl)-6-(2-(pyrrolidin-1-yl)pyrimidin-5-yl)pyridazin-3(2H)-one], which IC50 is on record?
A: < 10 µM

Q: How did the IC50 turn out when `O=c1ccc(-c2cnc(OCC3(F)COC3)nc2)nn1Cc1ccc(F)cc1F` [Compound 24, 2-(2,4-difluorobenzyl)-6-(2-((3-fluorooxetan-3-yl)methoxy)pyrimidin-5-yl)pyridazin-3(2H)-one] was run?
A: < 10 µM

Q: How did the IC50 turn out when `O=c1ccc(-c2cnc(OCC3COC3)nc2)nn1Cc1ccc(F)cc1F` [Compound 25, 2-(2,4-difluorobenzyl)-6-(2-(oxetan-3-ylmethoxy)pyrimidin-5-yl)pyridazin-3(2H)-one] was run?
A: < 10 µM

Q: For `CC(=O)Nc1ncc(-c2ccc(=O)n(Cc3ccc(Cl)cc3)n2)cn1` [Compound 26, N-(5-(1-(4-chlorobenzyl)-6-oxo-1,6-dihydropyridazin-3-yl)pyrimidin-2-yl)acetamide], which IC50 is on record?
A: < 10 µM

Q: Which IC50 does the source give for `CN(C)c1ccc(-c2ccc(=O)n(Cc3ccc(Cl)cc3)n2)cn1` [Compound 27, 2-(4-chlorobenzyl)-6-(6-(dimethylamino)pyridin-3-yl)pyridazin-3(2H)-one] here?
A: < 10 µM

Q: `CN1CCC(F)(COc2ccc(-c3ccc(=O)n(Cc4ccc(Cl)cc4)n3)cn2)CC1` [Compound 28, 2-(4-chlorobenzyl)-6-(6-((4-fluoro-1-methylpiperidin-4-yl)methoxy)pyridin-3-yl)pyridazin-3(2H)-one] was tested. Which IC50 did it give?
A: > 100 µM

Q: `CN(CC(F)(F)F)c1ncc(-c2ccc(=O)n(Cc3ccc(F)cc3F)n2)cn1` [Compound 29, 2-(2,4-difluorobenzyl)-6-(2-(methyl(2,2,2-trifluoroethyl)amino)pyrimidin-5-yl)pyridazin-3(2H)-one] was tested. Which IC50 did it give?
A: < 10 µM

Q: How did the IC50 turn out when `O=c1ccc(-c2cnc(N3CCCC3C(F)(F)F)nc2)nn1Cc1ccc(F)cc1F` (stereo not shown) [Compound 30, 2-(2,4-difluorobenzyl)-6-(2-(2-(trifluoromethyl)pyrrolidin-1-yl)pyrimidin-5-yl)pyridazin-3(2H)-one] was run?
A: < 10 µM

Q: `O=c1ccc(-c2cnc(OCC(F)(F)F)nc2)nn1Cc1ccccc1` [Compound 31, 2-benzyl-6-(2-(2,2,2-trifluoroethoxy)pyrimidin-5-yl)pyridazin-3(2H)-one] was tested. Which IC50 did it give?
A: < 10 µM

Q: With `O=c1ccc(-c2cnc(NCC(F)F)nc2)nn1Cc1ccc(Cl)cc1` [Compound 32, 2-(4-chlorobenzyl)-6-(2-((2,2-difluoroethyl)amino)pyrimidin-5-yl)pyridazin-3(2H)-one] as the compound, how does the IC50 read?
A: < 10 µM

Q: `O=c1ccc(-c2cnc(OCC3COC3)nc2)nn1Cc1ccc(Cl)cc1` [Compound 33, 2-(4-chlorobenzyl)-6-(2-(oxetan-3-ylmethoxy)pyrimidin-5-yl)pyridazin-3(2H)-one] was tested. Which IC50 did it give?
A: < 10 µM

Q: Which IC50 does the source give for `O=c1ccc(-c2cnc(OCC(F)(F)F)nc2)nn1Cc1cccc(Cl)c1` [Compound 34, 2-(3-chlorobenzyl)-6-(2-(2,2,2-trifluoroethoxy)pyrimidin-5-yl)pyridazin-3(2H)-one] here?
A: < 10 µM

Q: `O=c1ccc(-c2cnc(OCC(F)(F)F)nc2)nn1Cc1cccc(F)c1` [Compound 35, 2-(3-fluorobenzyl)-6-(2-(2,2,2-trifluoroethoxy)pyrimidin-5-yl)pyridazin-3(2H)-one] was tested. Which IC50 did it give?
A: < 10 µM
